# Assay results taken from patent US20240067660A1, “MACROCYCLIC SPIROCYCLE DERIVATIVES AS MCL-1 INHIBITORS” (Janssen Pharmaceutica NV, priority 2019, published 2024).
# Like-named read-outs stand apart in the source and are kept apart here.
# Assays:
# [1] = biological target: Myeloid Cell Leukemia 1(Mcl-1) (Homo sapiens (Human), UniProt Q07820); test: Terbium labeled Mcl-1 HTRF binding assay with Cy5-labeled BIM BH3 peptide
# Protocol: Terbium labeled Myeloid Cell Leukemia 1(Mcl-1) homogeneous time-resolved fluorescence (HTRF) binding assay utilizing the BIM BH3 peptide (H2N-(C/Cy5Mal) WIAQELRRIGDEFN-OH) as the binding partner for Mcl-1.
# This assay evaluated inhibition of the BH3 domain: Mcl-1 interaction by measuring the displacement of Cy5-labeled BIM BH3 peptide (H2N—(C/Cy5Mal) WIAQELRRIGDEFN-OH) in the HTRF assay format.
# The following assay and stock buffers were prepared for use in the assay: (a) Stock buffer: 10 mM Tris-HCl, pH=7.5+150 mM NaCl, filtered, sterilized, and stored at 4° C.; and (b) 1× assay buffer, where the following ingredients were added fresh to stock buffer: 2 mM dithiothreitol (DTT), 0.0025% Tween-20, 0.1 mg/mL bovine serum albumin (BSA). The 1×Tb-Mcl-1+Cy5 Bim peptide solution was prepared by diluting the protein stock solution using the 1× assay buffer (b) to 25 pM Tb-Mcl-1 and 8 nM Cy5 Bim peptide.
# Using the Acoustic ECHO, 100 nL of 100× test compound(s) were dispensed into individual wells of a white 384-well Perkin Elmer Proxiplate, for a final compound concentration of lx and final DMSO concentration of 1%. Inhibitor control and neutral control (NC, 100 nL of 100% DMSO) were stamped into columns 23 and 24 of assay plate. Into each well of the plate was then dispensed 10 μL of the 1×Tb-Mcl-1+Cy5 Bim peptide solution. The plate was centrifuged with a cover plate at 1000 rpm for 1 minute, then incubated for 60 minutes at room temperature with plates covered.
# The TR-FRET signal was read on an BMG PHERAStar FSX MicroPlate Reader at room temperature using the HTRF optic module (HTRF: excitation: 337 nm, light source: laser, emission A: 665 nm, emission B: 620 nm, integration start: 60 μs, integration time: […]).
# The BMG PHERAStar FSX MicroPlate Reader was used to measure fluorescence intensity at two emission wavelengths—665 nm and 620 nm—and report relative fluorescence units (RFU) for both emissions, as well as a ratio of the emissions (665 nm/620 nm)*10,000. The RFU values were normalized to percent inhibition as follows:
# % inhibition=((NC−IC)−(compound−IC))/(NC−IC))*100
# where IC (inhibitor control, low signal)=mean signal of 1×Tb-MCl-1+Cy5 Bim peptide+inhibitor control or 100% inhibition of Mcl-1; NC (neutral control, high signal)=mean signal 1×Tb-MCl-1+Cy5 Bim peptide with DMSO only or 0% inhibition An 11-point dose response curve was generated to determine IC50 values (using GenData) based on the following equation:
# Y=Bottom+(Top−Bottom)/(1+10^((IogIC50−X)*HillSlope))
# where Y=% inhibition in the presence of X inhibitor concentration; Top=100% inhibition derived from the IC (mean signal of Mcl-1+inhibitor control); Bottom=0% inhibition derived from the NC (mean signal of Mcl-1+DMSO); Hillslope=Hill coefficient; and IC50=concentration of compound with 50% inhibition in relation to top/neutral control (NC).
# In this assay [L]=8 nM and Kd=10 nM
# [2] = test system: MOLP-8 human multiple myeloma cell line; test: Caspase-Glo 3/7 assay in MOLP-8 cells; format: cell-based; conditions: Caspase-Glo 3/7, 2 hours incubation, averaged over all runs on all batches, read-out: MOLP8 AC50
# Description: MCL-1 is a regulator of apoptosis and is highly over-expressed in tumor cells that escape cell death. The assay evaluates the cellular potency of small-molecule compounds targeting regulators of the apoptosis pathway, primarily MCL-1, Bfl-1, Bcl-2, and other proteins of the Bcl-2 family. Protein-protein inhibitors disrupting the interaction of anti-apoptotic regulators with BH3-domain proteins initiate apoptosis.
# The Caspase-Glo® 3/7 Assay is a luminescent assay that measures caspase-3 and -7 activities in purified enzyme preparations or cultures of adherent or suspension cells. The assay provides a proluminescent caspase-3/7 substrate, which contains the tetrapeptide sequence DEVD. This substrate is cleaved to release aminoluciferin, a substrate of luciferase used in the production of light. Addition of the single Caspase-Glo® 3/7 Reagent in an “add-mix-measure” format results in cell lysis, followed by caspase cleavage of the substrate and generation of a “glow-type” luminescent signal.
# This assay uses the MOLP-8 human multiple myeloma cell line, which is sensitive to MCL-1 inhibition.
# Cell cultures were maintained between 0.2 and 2.0×10^6 cells/mL. The cells were harvested by collection in 50 mL conical tubes. The cells were then pelleted at 500 g for 5 mins before removing supernatant and resuspension in fresh pre-warmed culture medium. The cells were counted and diluted as needed.
# The assay reagent was prepared by transferring the buffer solution to the substrate vial and mixing. The solution may be stored for up to 1 week at 4° C. with negligible loss of signal.
# Compounds were delivered in assay-ready plates (Proxiplate) and stored at −20° C. Assays always include 1 reference compound plate containing reference compounds. The plates were spotted with 40 nL of compounds (0.5% DMSO final in cells; serial dilution; 30 μM highest conc. 1/3 dilution, 10 doses, duplicates). The compounds were used at room temperature and 4 μL of pre-warmed media was added to all wells except column 2 and 23. The negative control was prepared by adding 1% DMSO in media. The positive control was prepared by adding the appropriate positive control compound in final concentration of 60 μM in media. The plate was prepared by adding 4 μL negative control to column 23, 4 μL positive control to column 2 and 4 μL cell suspension to all wells in the plate. The plate with cells was then incubated at 37° C. for 2 hours. The assay signal reagent is the Caspase-Glo solution described above, and 8 μL was added to all wells. The plates were then sealed and measured after 30 minutes.
# The activity of a test compound was calculated as percent change in apoptosis induction as follows: […]
# [3] = first table, [L]=8 nM, Kd=10 nM, before recalibration of the equipment
# [4] = obtained after recalibration of the equipment, averaged values over several runs
# Sequence of Myeloid Cell Leukemia 1(Mcl-1) (Q07820 whole entry): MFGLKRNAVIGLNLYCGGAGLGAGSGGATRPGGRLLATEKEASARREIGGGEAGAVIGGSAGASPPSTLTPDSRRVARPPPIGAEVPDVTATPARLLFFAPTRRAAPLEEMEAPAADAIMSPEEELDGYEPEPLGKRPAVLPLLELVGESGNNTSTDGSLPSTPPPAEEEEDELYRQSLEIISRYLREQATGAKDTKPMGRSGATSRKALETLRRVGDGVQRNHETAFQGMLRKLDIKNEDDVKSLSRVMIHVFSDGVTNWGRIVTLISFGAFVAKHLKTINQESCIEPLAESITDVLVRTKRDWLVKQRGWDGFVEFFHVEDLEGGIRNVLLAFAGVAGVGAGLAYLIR
SMILES,"Ki [1, 3]","Ki [1, 4]","AC50 ([2]; Homo sapiens, MOLP-8, 2 h)",AC50 [2]
"COCC1/C=C/C[C@H](C)[C@@H](C)S(=O)(=O)NC(=O)c2ccc3c(c2)N(C[C@@H]2CCCN12)C[C@@]1(CCCc2cc(Cl)ccc21)CO3 (single isomer, unassigned) [Compound 8]",2.04 nM,2.64 nM,1330 nM,–
"C[C@@H]1[C@@H](C)C/C=C/C(CO)N2CC[C@H]2CN2C[C@@]3(CCCc4cc(Cl)ccc43)COc3ccc(cc32)C(=O)NS1(=O)=O (single isomer, unassigned) [Compound 10]",2.65 nM,–,1490 nM,–
COC[C@H]1/C=C/C[C@@H](C)[C@@H](C)S(=O)(=O)NC(=O)c2ccc3c(c2)N(C[C@@H]2CCN21)C[C@@]1(CCCc2cc(Cl)ccc21)CO3 [Compound 4],1.98 nM,3.15 nM,740 nM,–
COC[C@@H]1/C=C/C[C@@H](C)[C@@H](C)S(=O)(=O)NC(=O)c2ccc3c(c2)N(C[C@@H]2CCN21)C[C@@]1(CCCc2cc(Cl)ccc21)CO3 [Compound 7],0.83 nM,0.61 nM,852 nM,–
C[C@@H]1[C@@H](C)C/C=C(\F)[C@H](CO)N2CC[C@H]2CN2C[C@@]3(CCCc4cc(Cl)ccc43)COc3ccc(cc32)C(=O)NS1(=O)=O [Compound 9],0.22 nM,0.23 nM,144 nM,–
C[C@@H]1[C@@H](C)C/C=C(\F)[C@H](COc2ccccn2)N2CC[C@H]2CN2C[C@@]3(CCCc4cc(Cl)ccc43)COc3ccc(cc32)C(=O)NS1(=O)=O [Compound 11],3.97 nM,2.13 nM,1490 nM,–
C[C@@H]1[C@@H](C)C/C=C(\F)[C@H](COc2ccccn2)N2CC[C@@H]2CN2C[C@@]3(CCCc4cc(Cl)ccc43)COc3ccc(cc32)C(=O)NS1(=O)=O [Compound 12],–,2.15 nM,–,520 nM
COC[C@H]1/C(F)=C/C[C@H](C)[C@@H](C)S(=O)(=O)NC(=O)c2ccc3c(c2)N(C[C@@H]2CCN21)C[C@@]1(CCCc2cc(Cl)ccc21)CO3 [Compound 13],0.49 nM,0.51 nM,181 nM,–
CC(C)COC[C@H]1/C(F)=C/C[C@H](C)[C@@H](C)S(=O)(=O)NC(=O)c2ccc3c(c2)N(C[C@@H]2CCN21)C[C@@]1(CCCc2cc(Cl)ccc21)CO3 [Compound 15],3.64 nM,2.33 nM,1860 nM,–
CCOC[C@H]1/C(F)=C/C[C@H](C)[C@@H](C)S(=O)(=O)NC(=O)c2ccc3c(c2)N(C[C@@H]2CCN21)C[C@@]1(CCCc2cc(Cl)ccc21)CO3 [Compound 16],0.83 nM,–,207 nM,–
C[C@@H]1[C@@H](C)C/C=C(\F)[C@H](COCC(=O)O)N2CC[C@H]2CN2C[C@@]3(CCCc4cc(Cl)ccc43)COc3ccc(cc32)C(=O)NS1(=O)=O [Compound 17],0.13 nM,0.17 nM,5990 nM,–
C[C@@H]1[C@@H](C)C/C=C(\F)[C@H](COCC(=O)N2CCOCC2)N2CC[C@H]2CN2C[C@@]3(CCCc4cc(Cl)ccc43)COc3ccc(cc32)C(=O)NS1(=O)=O [Compound 18],0.24 nM,0.24 nM,448 nM,–
C[C@@H]1[C@@H](C)C/C=C(\F)[C@H](COCC(=O)N2CC(F)(F)C2)N2CC[C@H]2CN2C[C@@]3(CCCc4cc(Cl)ccc43)COc3ccc(cc32)C(=O)NS1(=O)=O [Compound 19],0.43 nM,0.36 nM,302 nM,–
COCCCOC[C@H]1/C(F)=C/C[C@H](C)[C@@H](C)S(=O)(=O)NC(=O)c2ccc3c(c2)N(C[C@@H]2CCN21)C[C@@]1(CCCc2cc(Cl)ccc21)CO3 [Compound 22],1.29 nM,0.69 nM,274 nM,–
C[C@@H]1[C@@H](C)C/C=C(\F)[C@H](COCCC2CCOCC2)N2CC[C@H]2CN2C[C@@]3(CCCc4cc(Cl)ccc43)COc3ccc(cc32)C(=O)NS1(=O)=O [Compound 23],1.52 nM,0.82 nM,545 nM,–
Cc1nc(COC[C@H]2/C(F)=C/C[C@H](C)[C@@H](C)S(=O)(=O)NC(=O)c3ccc4c(c3)N(C[C@@H]3CCN32)C[C@@]2(CCCc3cc(Cl)ccc32)CO4)no1 [Compound 24],0.63 nM,0.47 nM,234 nM,–
C[C@@H]1[C@@H](C)C/C=C(\F)[C@H](COCCCN2CCOCC2)N2CC[C@H]2CN2C[C@@]3(CCCc4cc(Cl)ccc43)COc3ccc(cc32)C(=O)NS1(=O)=O [Compound 25],0.2 nM,0.21 nM,231 nM,–
C[C@@H]1[C@@H](C)C/C=C(\F)[C@H](COCC2CCC2)N2CC[C@H]2CN2C[C@@]3(CCCc4cc(Cl)ccc43)COc3ccc(cc32)C(=O)NS1(=O)=O [Compound 26],4.72 nM,2.87 nM,2520 nM,–
C[C@@H]1[C@@H](C)C/C=C(\F)[C@H](CF)N2CC[C@H]2CN2C[C@@]3(CCCc4cc(Cl)ccc43)COc3ccc(cc32)C(=O)NS1(=O)=O [Compound 31],–,0.86 nM,512 nM,–
